We go through two molecules from patent US9610293B2, “Co-micronization product comprising ulipristal acetate” (LABORATOIRE HRA-PHARMA, priority 2012, dated 2017).

Molecules are shown by their SMILES.

Data set [1] is described as follows: In vitro dissolution of UPA from gelatin gel capsules (paddle device, European Pharmacopoeia §2.9.3, 900 ml). Type of data set: physicochemical. The note with it: 30 mg UPA capsule, 900 ml gastric pH buffer + 0.1% SDS, 37°C, 50 rpm, mean of 3. The protocol: The in vitro dissolution test can be carried out using any commercially available device comprising paddles. Example 1 hereinafter presents implementing conditions for determining the in vitro dissolution rate of a comicronizate according to the invention. Briefly, an amount of comicronizate representing 30 mg of active ingredient is placed in a gelatin gel capsule. This gel capsule is then placed in 900 ml of a medium buffered at gastric pH, comprising 0.1% of SDS, at 37±0.5° C., and subjected to stirring at 50 revolutions per minute (rpm) (speed of rotation of the paddles of the dissolution device).
For each comicronizate obtained, hard gelatin gel capsules containing an amount of comicronizate corresponding to 30 mg of UPA per capsule were prepared. The studies of in vitro dissolution of UPA as comicronizate were carried out using these capsules according to the European Pharmacopoeia in §2.9.3, using a paddle dissolution device. For each comicronizate, a gel capsule containing said comicronizate was placed in a bowl of the dissolution device containing 900 ml of a dissolution medium. The dissolution medium is an aqueous solution buffered at gastric pH and comprising 0.1% by weight of SDS. The conditions for carrying out the in vitro dissolutions are the following: • Paddle rotation speed: 50 revolutions per minute (rpm) • Temperature: 37° C.±0.5° C.
The dissolution of the UPA was monitored by spectrophotometry.
By way of control experiment, a gelatin gel capsule containing 30 mg of ulipristal acetate micronized alone (i.e. UPA micronized in the absence of any co-micronization excipient) was used.
For each comicronizate, the dissolution experiment was reproduced 3 times. […]

The nature of data set [2]: Pharmacokinetic study in rats (plasma UPA by LC/MS/MS). Format: in vivo. As to conditions: female, OFA(SD), rat, 4 mg UPA per kg, powder into the stomach, pooled plasma. On the procedure:
The pharmacokinetic study was carried out on female OFA(SD) rats weighing between 0.206 and 0.251 kg. The animals were deprived of food for 16 hours before the administration of the samples. The animals were placed in cages, the temperature of which was maintained between 20 and 25° C.; the day/night cycles were 12 h each (6 am-6 pm) and the air was conditioned using a ventilation system.
The samples tested are the following: • Comicronizate of ulipristal acetate/SDS, 1/1 ratio • Powder of ulipristal acetate micronized in the absence of any excipient (UPA micronized alone)
A predetermined amount of powder was administered by means of an oesophageal tube using a cannula. The powder was introduced into the stomach of each animal using a catheter. The dose administered corresponds to 4 mg of ulipristal acetate per kg.
Blood samples of 300 μl were taken from the (left or right) jugular of the rats. In order to avoid excessively high blood sampling, the rats were divided into 3 groups of 6 rats as follows:
The samples were collected on heparin tubes and then centrifuged within the hour for 7-8 min at 1600 g at 4° C. At each sampling time, the plasma of the 6 rats of the group is “pooled”.
The ulipristal acetate was assayed by LC/MS/MS under the following conditions: • Mobile phase: Methanol/distilled water (70/30, V/V)+1% acetic acid • Column: BDS Hypersil phenyl, 100×2.1 mm, 5 μm • Elution mode: isocratic • flow rate: 0.400 ml/min • Injection volume: 10.0 μl • Needle cleaning liquid: Acetonitrile/isopropanol/acetone (40/40/20, V/V/V) 2. Results

The conditions of data set [3]: single dose of 30 mg within 120 hours following unprotected intercourse; cited from earlier work.
For data set [4] the following is noted: chronic administration, 5 mg or 10 mg per day; cited from earlier work.

For `CC(=O)O[C@]1(C(C)=O)CCC2C3CCC4=CC(=O)CCC4=C3[C@@H](c3ccc(N(C)C)cc3)C[C@@]21C` (stereo partly drawn) [UPA micronized alone, 17α-acetoxy-11β-[4-(N,N-dimethylamino)-phenyl]-19-norpregna-4,9-diene-3,20-dione], the “Percentage of UPA released relative to initial amount per gel capsule” value in data set [1] (t=0 min) is 0.0%; in data set [1] (t=1 min), 0.0%; in data set [1] (t=5 min), 5.5%; in data set [1] (t=7.5 min) it was 15.00%; in data set [1] (t=10 min), 22.30%; in data set [1] (t=15 min) it was 30.00%. Besides, the “Percentage of UPA released relative to initial amount per gel capsule” value in data set [1] (t=20 min) is 34.30%; in data set [1] (t=20 min, listed as Micronized UPA (in the absence of excipient)) it was 34.30%; in data set [1] (t=20 min, listed as ulipristal acetate which has been micronized in the absence of excipient) it was “approximately 35%”; in data set [1] (t=30 min) it was 39.50%; in data set [1] (t=45 min) it was 47.50%; in data set [1] (t=60 min), 53.80%. Also, the Tmax in data set [2] (oral) is 1.25 h. This molecule also showed an AUC(0-inf) in data set [2] (po, 4 mg/kg) of 1380 ng·h/mL. In data set [2] (po, 4 mg/kg), this molecule had an AUC(0-t) of 1340 ng·h/mL. In data set [2] (po, 4 mg/kg), this molecule came in with a Cmax of 447 ng/mL.
Take `CC(=O)O[C@]1(C(C)=O)CCC2C3CCC4=CC(=O)CCC4=C3[C@@H](c3ccc(N(C)C)cc3)C[C@@]21C` (stereo partly drawn) [UPA, 17α-acetoxy-11β-[4-(N,N-dimethylamino)-phenyl]-19-norpregna-4,9-diene-3,20-dione]: in data set [3], the Emergency contraceptive effect result is given as “makes it possible to prevent an unwanted pregnancy”. Moreover, the “Effect on symptoms associated with uterine fibromas” value in data set [4] is listed as “significantly reduce the symptoms associated with uterine fibromas”.

For orientation: Tmax means the time at which the peak concentration occurs. The AUC(0-inf) is total exposure, with the tail of the curve extrapolated. Higher therefore signals high exposure. Broadly, the AUC(0-t) is the area under the concentration-time curve up to a stated or last time point. A higher AUC(0-t) goes with high exposure. The Cmax is the highest concentration seen after dosing.
